These are literature values, as cited in patent US20230201308A1, “TREATMENT OF CORONAVIRUS INFECTION WITH […]” (Eiger Biopharmaceuticals, Inc., priority 2020, published 2023).

The data set concerns SARS-CoV-2. To be noted: BLAZE trial; placebo group 15%; cited from earlier work.

As for bamlanivimab, the “hospitalization in the treatment group” value is “placebo group to 4% in the treatment group. Despite the more potent antiviral effect”.
